Laboratory results from article PMC7601695, “Transcriptome Analysis of Psacothea hilaris: De Novo Assembly and Antimicrobial Peptide Prediction” (Insects, 2020).

Tests used:
Format in all cases: cell-based
[1] = test system: Staphylococcus aureus (KACC 10768, ATCC 25923); test: Radial diffusion assay, S. aureus; settings: peptide 200 μg/mL, 5 μL per 3-mm well, 3 h diffusion then 12 h at 37 °C, mean of tests repeated three times
Protocol: (§1) The bacterial strains Escherichia coli (KACC 13821, ATCC 11775) and Staphylococcus aureus (KACC 10768, ATCC 25923), and the yeast strain Candida albicans (KCTC 7121, ATCC 14053) were purchased from the Korean Agricultural Culture Collection (KACC) and Korean Collection for Type Cultures (KCTC). Both bacteria and yeast were grown overnight in tryptic soy broth (TSB; Difco, Thermo Fisher Scientific, Waltham, MA, USA) at 37 °C, 200 rpm to the stationary phase. Bacteria were re-inoculated in fresh TSB medium and cultivated for 3 h to the log phase. The strains were stored with 15% glycerol at −70 °C.
(§2) The radial diffusion assay was performed to test the antimicrobial activities of peptides, as described previously with slight modifications. In brief, bacteria and yeast strains were grown to the mid-logarithmic phase in TSB at 37 °C and then washed twice with 10 mM sodium phosphate buffer (pH 7.4). A total of 4 × 10^6 colony forming unit (CFU) was added to 10 mL of an underlay agarose gel (9 mM sodium phosphate, 1 mM sodium citrate, pH 7.4, 1% (w/v) Type I (low electroendosmosis) agarose (Sigma, St. Louis, MO, USA), and 3% TSB (Difco, USA)). The underlay gel was poured into a 100-mm INTEGRIDTM Petri dish. After agarose solidification, 3-mm-diameter wells were punched and 5 μL of each peptide solution was added to each well. Buffer alone was used as a negative control. Plates were incubated at 37 °C for 3 h to allow for diffusion of the peptides. The underlay gel was then covered with 10 mL of nutrient-rich agar overlay (6% TSB and 1% agarose). The antimicrobial activity of a peptide was measured as the diameter of the cleared zone around each well after 12 h of incubation at 37 °C. This experiment was repeated at least 3 times.

[2] = test system: Escherichia coli (KACC 13821, ATCC 11775); test: Radial diffusion assay, E. coli; settings: for Diameter of clearing zone, E. coli: peptide 200 μg/mL, 5 μL per 3-mm well, 3 h diffusion then 12 h at 37 °C, mean of tests repeated three times; for Antimicrobial activity compared with melittin, E. coli: in words
Protocol: as §1, §2

[3] = test system: Candida albicans (KCTC 7121, ATCC 14053); test: Radial diffusion assay, C. albicans; settings: for Diameter of clearing zone, C. albicans: peptide 200 μg/mL, 5 μL per 3-mm well, 3 h diffusion then 12 h at 37 °C, mean of tests repeated three times; for Antimicrobial activity compared with melittin, C. albicans: in words
Protocol: as §1, §2

[4] = test system: mouse erythrocytes; test: Hemolytic assay; settings: 12.5 μg/mL; 2.5% (v/v) mouse erythrocytes in PBS; 30 min, 37 °C; A540
Protocol: This experiment was approved by the Institutional Animal Care and Use Committee (IACUC) of the National Institute of Agricultural Sciences (approval number: NAS-202014). The hemolytic activity of the peptides was determined by monitoring the release of hemoglobin from mouse erythrocytes at 540 nm. For the hemolytic assay, 20 μL of each peptide solution at a predetermined concentration was added to 180 μL of a 2.5% (v/v) suspension of mouse erythrocytes in phosphate-buffered saline (PBS). Melittin (Sigma), a hemolytic and α-helical peptide isolated from bee venom, were used as the positive control. This mixture was incubated for 30 min at 37 °C, and 600 μL of PBS was then added to each tube. After 3 min of centrifugation at 10,000× g, the supernatant was […], and the absorbance was measured at 540 nm. Evaluations were made from the results of at least three independent experiments, each carried out in triplicate.
Figure 4 Cytotoxic effects of 13 selected peptides. Hemolytic activity of the peptides. Peptide concentration (x-axis) is plotted against the percentage of hemolysis (y-axis) of mouse red blood cells after incubation for 30 min. Melittin was used as the positive control. The percent hemolysis was calculated with the following equation: hemolysis (%) = (A540 of samp—A540 of peptide-free control)/(A540 of 100% control—A540 of peptide-free control) × 100. […]

Compound | Diameter of clearing zone, S. aureus [1] | Diameter of clearing zone, E. coli [2] | Diameter of clearing zone, C. albicans [3] | Antimicrobial activity compared with melittin, E. coli [2] | Antimicrobial activity compared with melittin, C. albicans [3] | Hemolysis of mouse red blood cells [4]
RKSWRHWKC * [Ph 16, synthetic peptide predicted as novel AMP from the P. hilaris transcriptome] | 87 Units (1 mm = 10 Units) | 50 Units (1 mm = 10 Units) | 65 Units (1 mm = 10 Units) |  |  | 
KIGTFIKKLSYTS * [Ph 26, synthetic peptide predicted as novel AMP from the P. hilaris transcriptome] | 75 Units (1 mm = 10 Units) | 85 Units (1 mm = 10 Units) | 25 Units (1 mm = 10 Units) | stronger antimicrobial activity than melittin |  | 
RAIKWPGNGLLFLKY * [Ph 1, synthetic peptide predicted as novel AMP from the P. hilaris transcriptome] | 86 Units (1 mm = 10 Units) | 85 Units (1 mm = 10 Units) | 65 Units (1 mm = 10 Units) | stronger antimicrobial activity than melittin |  | 
RISCVAMRLILK * [Ph 10, synthetic peptide predicted as novel AMP from the P. hilaris transcriptome] | 72 Units (1 mm = 10 Units) | 67 Units (1 mm = 10 Units) | 48 Units (1 mm = 10 Units) |  |  | 
RLLLLCYACGKS * [Ph 12, synthetic peptide predicted as novel AMP from the P. hilaris transcriptome] | 75 Units (1 mm = 10 Units) | 70 Units (1 mm = 10 Units) | 40 Units (1 mm = 10 Units) |  |  | 
RRRCRCCRY * [Ph 14, synthetic peptide predicted as novel AMP from the P. hilaris transcriptome] | 70 Units (1 mm = 10 Units) | 65 Units (1 mm = 10 Units) | 105 Units (1 mm = 10 Units) |  | stronger antimicrobial activity than melittin | 
KLSNAVFKSCRKI * [Ph 24, synthetic peptide predicted as novel AMP from the P. hilaris transcriptome] | 65 Units (1 mm = 10 Units) | 49 Units (1 mm = 10 Units) | 47 Units (1 mm = 10 Units) |  |  | 
KRGYQVPRIAFII * [Ph 3, synthetic peptide predicted as novel AMP from the P. hilaris transcriptome] | 85 Units (1 mm = 10 Units) | 72 Units (1 mm = 10 Units) | 80 Units (1 mm = 10 Units) |  | stronger antimicrobial activity than melittin | 
CC[C@H](C)[C@H](NC(=O)CN)C(=O)NCC(=O)N[C@@H](C)C(=O)N[C@H](C(=O)N[C@@H](CC(C)C)C(=O)N[C@@H](CCCCN)C(=O)N[C@H](C(=O)N[C@@H](CC(C)C)C(=O)N[C@H](C(=O)N[C@H](C(=O)NCC(=O)N[C@@H](CC(C)C)C(=O)N1CCC[C@H]1C(=O)N[C@@H](C)C(=O)N[C@@H](CC(C)C)C(=O)N[C@H](C(=O)N[C@@H](CO)C(=O)N[C@@H](Cc1c[nH]c2ccccc12)C(=O)N[C@H](C(=O)N[C@@H](CCCCN)C(=O)N[C@@H](CCCNC(=N)N)C(=O)N[C@@H](CCCCN)C(=O)N[C@@H](CCCNC(=N)N)C(=O)N[C@@H](CCC(N)=O)C(=O)N[C@@H](CCC(N)=O)C(N)=O)[C@@H](C)CC)[C@@H](C)CC)[C@@H](C)O)[C@@H](C)O)C(C)C)C(C)C [Melittin, reference compound] | 100 Units (1 mm = 10 Units) | 75 Units (1 mm = 10 Units) | 65 Units (1 mm = 10 Units) |  |  | 92%
KLQVVPAIHLVWLQK * [Ph 4, synthetic peptide predicted as novel AMP from the P. hilaris transcriptome] | 80 Units (1 mm = 10 Units) | 75 Units (1 mm = 10 Units) | 30 Units (1 mm = 10 Units) |  |  | 
KLPIVNVKLVNRIK * [Ph 2, synthetic peptide predicted as novel AMP from the P. hilaris transcriptome] | 90 Units (1 mm = 10 Units) | 80 Units (1 mm = 10 Units) | 80 Units (1 mm = 10 Units) | stronger antimicrobial activity than melittin | stronger antimicrobial activity than melittin | 
KRIFYLYIRGQ * [Ph 22, synthetic peptide predicted as novel AMP from the P. hilaris transcriptome] | 95 Units (1 mm = 10 Units) | 85 Units (1 mm = 10 Units) | 92 Units (1 mm = 10 Units) | stronger antimicrobial activity than melittin | stronger antimicrobial activity than melittin | 
KMFTKCIRYRKM * [Ph 20, synthetic peptide predicted as novel AMP from the P. hilaris transcriptome] | 85 Units (1 mm = 10 Units) | 65 Units (1 mm = 10 Units) | 68 Units (1 mm = 10 Units) |  |  | 
RCLKTCFLSFIRY * [Ph 8, synthetic peptide predicted as novel AMP from the P. hilaris transcriptome] | 83 Units (1 mm = 10 Units) | 71 Units (1 mm = 10 Units) | 45 Units (1 mm = 10 Units) |  |  | 
